Reference: patent publication US20110086834A1, “ALKYNYL ALCOHOLS AS KINASE INHIBITORS” (AMGEN INC., priority 2008, published 2011)

target: T1, NIK (Homo sapiens, UniProt Q99558); test: homogenous time resolved fluorescence (HTRF) assay for NIK Ki measurement; assay type: biochemical; conditions: truncated NIK (catalytic domain only), autophosphorylation; 10 nM enzyme; 20, 100, 200 or 500 μM ATP; room temperature, 2 hours; read-out: Ki activity in the homogenous time resolved fluorescence (HTRF) assay for NIK
T1 construct: Both assays utilize a truncated form of NIK containing only the catalytic domain; made in house; host or cells: baculovirus expression system (insect cells implied)
T1 sequence (Q99558 400-655 limits assumed): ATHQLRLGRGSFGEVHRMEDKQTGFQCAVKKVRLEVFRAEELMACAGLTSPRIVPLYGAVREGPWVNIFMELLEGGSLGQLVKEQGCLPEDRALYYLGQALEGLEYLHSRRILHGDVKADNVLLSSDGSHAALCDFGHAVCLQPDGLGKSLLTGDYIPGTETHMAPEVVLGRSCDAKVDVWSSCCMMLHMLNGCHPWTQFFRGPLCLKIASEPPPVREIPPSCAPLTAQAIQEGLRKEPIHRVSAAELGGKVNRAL

| Structure (SMILES) | Ki [nM] |
| --- | --- |
| Cc1cc([C@@](C)(O)C#Cc2ccc(F)c(Nc3nc(N)ncc3Cl)c2)no1 [Example 177, (S)-4-(3-(2-amino-5-chloropyrimidin-4-ylamino)-4-fluorophenyl)-2-(5-methylisoxazol-3-yl)but-3-yn-2-ol] | 1000 to 30000 |
| CN1CC2(C1)CN(c1nc(N)ncc1Cl)c1cc(C#CC3(O)CCCC3)ccc12 [Example 180, 1-((1′-(2-amino-5-chloropyrimidin-4-yl)-1-methylspiro[azetidine-3,3′-indoline]-6′-yl)ethynyl)cyclopentanol] | < 1000 |
| COCCN1CC2(C1)CN(c1nc(N)ncc1Cl)c1cc(C#C[C@@](C)(O)c3nccs3)ccc12 [Example 183, (2R)-4-(1′-(2-amino-5-chloropyrimidin-4-yl)-1-(2-methoxyethyl)spiro[azetidine-3,3′-indoline]-6′-yl)-2-(thiazol-2-yl)but-3-yn-2-ol] | < 1000 |
| C[C@@](O)(C#Cc1ccc2c(c1)N(c1nc(N)ncc1Cl)CC21CN(CCS(C)(=O)=O)C1)c1nccs1 [Example 184, (R)-4-(1′-(2-amino-5-chloropyrimidin-4-yl)-1-(2-(methylsulfonyl)ethyl)spiro[azetidine-3,3′-indoline]-6′-yl)-2-(thiazol-2-yl)but-3-yn-2-ol] | < 1000 |
| CN1CCC2(CC1)CN(c1nc(N)ncc1Cl)c1cc(C#CC3(O)CCCC3)ccc12 [Example 185, 1-((1-(2-Amino-5-chloro-4-pyrimidinyl)-1′-methyl-1,2-dihydrospiro[indole-3,4′-piperidin]-6-yl)ethynyl)cyclopentanol] | < 1000 |
| CN1CCC2(CC1)CN(c1nc(N)ncc1F)c1cc(C#CC3(O)CCCC3)ccc12 [Example 186, 1-((1-(2-amino-5-fluoropyrimidin-4-yl)-1′-methylspiro[indoline-3,4′-piperidine]-6-yl)ethynyl)cyclopentanol] | < 1000 |
| CN1CCC2(CC1)CN(c1nc(N)nc3[nH]cnc13)c1cc(C#CC3(O)CCCC3)ccc12 [Example 187, 1-((1-(2-amino-9H-purin-6-yl)-1′-methylspiro[indoline-3,4′-piperidine]-6-yl)ethynyl)cyclopentanol] | < 1000 |
| CN1CCC2(C1)CN(c1nc(N)nc3[nH]cnc13)c1cc(C#CC3(O)CCCC3)ccc12 (stereo not shown) [Example 191, 1-((1-(2-Amino-9H-purin-6-yl)-1′-methyl-1,2-dihydrospiro[indole-3,3′-pyrrolidin]-6-yl)ethynyl)cyclopentanol] | < 1000 |
| Nc1ncc(Cl)c(N2CC3(CCOCC3)c3ccc(C#CC4(O)CCCC4)cc32)n1 [Example 205, 1-((1-(2-Amino-5-chloro-4-pyrimidinyl)-1,2,2′,3′,5′,6′-hexahydrospiro[indole-3,4′-pyran]-6-yl)ethynyl)cyclopentanol] | < 1000 |

Results, then the compound that gave them:

| Ki [nM] | Structure (SMILES) |
| --- | --- |
| < 1000 | Nc1ncc(F)c(N2CC3(CCOCC3)c3ccc(C#CC4(O)CCCC4)cc32)n1 [Example 206, 1-((1-(2-Amino-5-fluoro-4-pyrimidinyl)-1,2,2′,3′,5′,6′-hexahydrospiro[indole-3,4′-pyran]-6-yl)ethynyl)cyclopentanol] |
| < 1000 | CNc1nc(N2CC3(CCOCC3)c3ccc(C#CC4(O)CCCC4)cc32)c2nc[nH]c2n1 [Example 207, 1-((1-(2-(Methylamino)-9H-purin-6-yl)-1,2,2′,3′,5′,6′-hexahydrospiro[indole-3,4′-pyran]-6-yl)ethynyl)cyclopentanol] |
| < 1000 | Nc1ncc(Cl)c(N2CC3(CS(=O)(=O)C3)c3ccc(C#CC4(O)CCCC4)cc32)n1 [Example 212, 1-((1-(2-Amino-5-chloro-4-pyrimidinyl)-1′,1′-dioxido-1,2-dihydrospiro[indole-3,3′-thietan]-6-yl)ethynyl)cyclopentanol] |
| < 1000 | C[C@@](O)(C#Cc1ccc2c(c1)N(c1nc(N)ncc1Cl)CC21CS(=O)(=O)C1)c1nccs1 [Example 213, (2R)-4-(1-(2-Amino-5-chloro-4-pyrimidinyl)-1′,1′-dioxido-1,2-dihydrospiro[indole-3,3′-thietan]-6-yl)-2-(1,3-thiazol-2-yl)-3-butyn-2-ol] |
